Measured values taken from patent US9556139B2, “6-substituted phenoxychroman carboxylic acid derivatives” (Array BioPharma Inc., priority 2008, dated 2017).
Read-outs that look alike come from different tables or passages of the source.

Target: human DP2 (Homo sapiens (Human), UniProt Q9Y5Y4)
Assay: DP-2 Binding Inhibition Assay (3H-PGD2 binding to membranes of K562 cells expressing DP2)
Settings: inhibition of 3H-PGD2 binding
Method in brief: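 Membranes from K562 stably expressing DP2, incubated 60 min at room temperature with ³H-PGD2 and compound in Tris pH 7.4 buffer with 0.1% BSA, 1% HSA or 4% HSA; filtration read-out. Nonspecific binding: 1 μM unlabeled PGD2 or 5 μM known antagonist. EC50 from 4-parameter logistic fit.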

[1] = read-out: EC50 (nM) 4% HSA, 4% HSA
[2] = read-out: EC50 (Nm) 1% HSA, 1% HSA

Sequence of human DP2 (Q9Y5Y4 whole entry): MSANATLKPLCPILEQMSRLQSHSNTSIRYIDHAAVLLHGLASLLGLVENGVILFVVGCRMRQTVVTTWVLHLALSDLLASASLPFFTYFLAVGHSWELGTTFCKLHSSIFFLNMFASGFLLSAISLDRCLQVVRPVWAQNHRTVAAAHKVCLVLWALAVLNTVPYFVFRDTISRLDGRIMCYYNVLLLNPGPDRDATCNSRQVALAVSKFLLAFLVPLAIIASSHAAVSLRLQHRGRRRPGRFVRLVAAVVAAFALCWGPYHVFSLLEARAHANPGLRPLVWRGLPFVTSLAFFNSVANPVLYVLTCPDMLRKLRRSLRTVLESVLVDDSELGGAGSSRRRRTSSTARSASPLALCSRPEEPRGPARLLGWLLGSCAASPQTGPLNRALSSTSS

Row | EC50 [1] | EC50 [2] | EC50 (EC50 (nM) 4% HSA, 4% HSA) | Compound
1 | 74.5 nM |  |  | CCOc1ccc(CCNC(=O)c2ccc(Oc3cc4c(cc3Cl)C(C(=O)O)CCO4)cc2)c(OC)c1 (centres unmarked) [Example 227, 6-chloro-7-(4-(4-ethoxy-2-methoxyphenethylcarbamoyl)phenoxy)chroman-4-carboxylic acid]
2 | 88.5 nM |  |  | COc1cc(Cl)c(CCNC(=O)c2ccc(Oc3cc4c(cc3Cl)C(C(=O)O)CCO4)cc2)c(OC)c1 (centres unmarked) [Example 226, 6-chloro-7-(4-(2-chloro-4,6-dimethoxyphenethylcarbamoyl)phenoxy)chroman-4-carboxylic acid]
3 | 430 nM |  |  | CSc1ccc(C2CCCC(NC(=O)c3ccc(Oc4cc5c(cc4Cl)C(C(=O)O)CCO5)cc3)C2)cc1 (centres unmarked) [Example 162, 6-Chloro-7-(4-(3-(4-(methylthio)phenyl)cyclohexylcarbamoyl)phenoxy)chroman-4-carboxylic acid]
4 |  | 203 nM |  | O=C(NCCc1ccc(Cl)cc1)c1ccc(Oc2cc3c(cc2Cl)C(C(=O)O)CCO3)c([N+](=O)[O-])c1 (centres unmarked) [Example 9, 6-Chloro-7-(4-(4-chlorophenethylcarbamoyl)-2-nitrophenoxy)chroman-4-carboxylic acid]
5 |  | 11.9 nM |  | N#Cc1cc2c(cc1Oc1ccc(C(=O)Nc3ccc(C(F)(F)F)cc3)cc1)OCCC2C(=O)O (centres unmarked) [Example 75, 6-Cyano-7-(4-(4-(trifluoromethyl)phenylcarbamoyl)phenoxy)chroman-4-carboxylic acid]
6 | 203 nM |  |  | COc1ccc(OC)c(CCNC(=O)c2ccc(Oc3cc4c(cc3Cl)C(C(=O)O)CCO4)cc2)c1 (centres unmarked) [Example 88, Sodium 6-chloro-7-(4-(2,5-dimethoxyphenethylcarbamoyl)phenoxy)chroman-4-carboxylate]
7 | 655 nM |  |  | O=C(NCCc1cccc(F)c1)c1ccc(Oc2cc3c(cc2Cl)C(C(=O)O)CCO3)cc1 (centres unmarked) [Example 145, Sodium 6-chloro-7-(4-(3-fluorophenethylcarbamoyl)phenoxy)chroman-4-carboxylate]
8 | 225 nM | 13.9 nM |  | O=C(NCCc1ccc(Cl)cc1)c1ccc(Oc2cc3c(cc2Cl)C(C(=O)O)CCO3)cc1 (centres unmarked) [Example 10, 6-Chloro-7-(4-(4-chlorophenethylcarbamoyl)phenoxy)chroman-4-carboxylic acid]
9 |  | 144 nM |  | O=C(NCCc1ccc(Cl)cc1)c1ccc(Oc2cc(Cl)c3c(c2)OCCC3C(=O)O)cc1 (centres unmarked) [Example 218, 5-chloro-7-(4-(4-chlorophenethylcarbamoyl)phenoxy)chroman-4-carboxylic acid]
10 | 392 nM |  |  | O=C(NCCc1cc(Cl)ccc1Cl)c1ccc(Oc2cc3c(cc2Cl)C(C(=O)O)CCO3)cc1 (centres unmarked) [Example 103, Sodium 6-chloro-7-(4-(2,5-dichlorophenethylcarbamoyl)phenoxy)chroman-4-carboxylate]
11 | 137 nM |  |  | O=C(NCCc1ccc(-c2ccccc2Cl)cc1Cl)c1ccc(Oc2cc3c(cc2Cl)C(C(=O)O)CCO3)cc1 (centres unmarked) [Example 29, Sodium 6-chloro-7-(4-(2-(2′,3-dichlorobiphenyl-4-yl)ethylcarbamoyl)phenoxy)chroman-4-carboxylate]
12 | 482 nM |  |  | O=C(NCCc1ccc(C2CC2)cc1)c1ccc(Oc2cc3c(cc2Cl)C(C(=O)O)CCO3)cc1 (centres unmarked) [Example 24, Sodium 6-chloro-7-(4-(4-cyclopropylphenethylcarbamoyl)phenoxy)chroman-4-carboxylate]
13 |  |  | 1670 nM | O=C(NC1CCC(c2ccccc2)CC1)c1ccc(Oc2cc3c(cc2Cl)C(C(=O)O)CCO3)cc1 (single isomer, unassigned) [Example 155 peak 2, 6-chloro-7-(4-(4-phenylcyclohexylcarbamoyl)phenoxy)chroman-4-carboxylic acid, isomer 2]
14 | 366 nM |  |  | O=C(NCCc1ccc(Cl)cc1)c1ccc(Oc2c(Cl)cc3c(c2Br)OCCC3C(=O)O)cc1 (centres unmarked) [Example 38, Sodium 8-bromo-6-chloro-7-(4-(4-chlorophenethylcarbamoyl)phenoxy)chroman-4-carboxylate]
15 | 179 nM |  |  | N#Cc1cc2c(cc1Oc1ccc(C(=O)NCC3Cc4ccccc4C3)cc1)OCCC2C(=O)O (centres unmarked) [Example 126, 6-Cyano-7-(4-((2,3-dihydro-1H-inden-2-yl)methylcarbamoyl)phenoxy)chroman-4-carboxylic acid]
16 | 73.8 nM |  |  | O=C(NCCc1ccc(Cl)cc1Cl)c1ccc(Oc2cc3c(cc2C2CC2)C(C(=O)O)CCO3)cc1 (centres unmarked) [Example 42, Sodium 6-cyclopropyl-7-(4-(2,4-dichlorophenethylcarbamoyl)phenoxy)chroman-4-carboxylate]
17 | 824 nM |  |  | O=C(NCCCCc1cccc(Cl)c1)c1ccc(Oc2cc3c(cc2Cl)C(C(=O)O)CCO3)cc1 (centres unmarked) [Example 14, Sodium 6-chloro-7-(4-(4-(3-chlorophenyl)butylcarbamoyl)phenoxy)chroman-4-carboxylate]
18 | 502 nM |  |  | O=C(NCC/C=C\c1ccc(Cl)cc1Cl)c1ccc(Oc2cc3c(cc2Cl)C(C(=O)O)CCO3)cc1 (centres unmarked) [Example 18, Sodium (Z)-6-chloro-7-(4-(4-(2,4-dichlorophenyl)but-3-enylcarbamoyl)phenoxy)chroman-4-carboxylate]

Row | EC50 [1] | EC50 [2] | EC50 (EC50 (nM) 4% HSA, 4% HSA) | Compound
19 | 509 nM |  |  | COc1cccc(C2CCCC(NC(=O)c3ccc(Oc4cc5c(cc4Cl)C(C(=O)O)CCO5)cc3)C2)c1 (centres unmarked) [Example 163, 6-Chloro-7-(4-(3-(3-methoxyphenyl)cyclohexylcarbamoyl)phenoxy)chroman-4-carboxylic acid]
20 |  |  | 399 nM | O=C(NC1CCC(c2ccccc2)CC1)c1ccc(Oc2cc3c(cc2Cl)C(C(=O)O)CCO3)cc1 (single isomer, unassigned) [Example 155 peak 1, 6-chloro-7-(4-(4-phenylcyclohexylcarbamoyl)phenoxy)chroman-4-carboxylic acid, isomer 1]
21 |  | 1040 nM |  | N#Cc1cc2c(cc1Oc1ccc(C(=O)NCC3(c4ccc(Cl)cc4)CC3)cc1)OCCC2C(=O)O (centres unmarked) [Example 219, 7-(4-((1-(4-chlorophenyl)cyclopropyl)methylcarbamoyl)phenoxy)-6-cyanochroman-4-carboxylic acid]
22 | 126 nM |  |  | O=C(NCCc1cccc2ccccc12)c1ccc(Oc2cc3c(cc2Cl)C(C(=O)O)CCO3)cc1 (centres unmarked) [Example 86, Sodium 6-chloro-7-(4-(2-(naphthalen-1-yl)ethylcarbamoyl)phenoxy)chroman-4-carboxylate]
23 | 272 nM |  |  | Cc1ccc(C2CCC(NC(=O)c3ccc(Oc4cc5c(cc4Cl)C(C(=O)O)CCO5)cc3)C2)cc1 (centres unmarked) [Example 166, 6-Chloro-7-(4-(3-p-tolylcyclopentylcarbamoyl)phenoxy)chroman-4-carboxylic acid]
24 | 569 nM |  |  | O=C(NCCc1cccc(O)c1)c1ccc(Oc2cc3c(cc2Cl)C(C(=O)O)CCO3)cc1 (centres unmarked) [Example 83, Sodium 6-chloro-7-(4-(3-hydroxyphenethylcarbamoyl)phenoxy)chroman-4-carboxylate]
25 | 857 nM |  |  | O=C(NCC(O)c1ccccc1Cl)c1ccc(Oc2cc3c(cc2Cl)C(C(=O)O)CCO3)cc1 (centres unmarked) [Example 185, Sodium 6-chloro-7-(4-(2-(2-chlorophenyl)-2-hydroxyethylcarbamoyl)phenoxy)chroman-4-carboxylate]
26 | 176 nM | 15.8 nM |  | O=C(NCCc1ccc(Cl)cc1)c1ccc(Oc2c(Cl)cc3c(c2Cl)OCCC3C(=O)O)cc1 (centres unmarked) [Example 46, Sodium 6,8-dichloro-7-(4-(4-chlorophenethylcarbamoyl)phenoxy)chroman-4-carboxylate]
27 | 183 nM |  |  | O=C(NC1CCCC(c2ccc(Cl)cc2)C1)c1ccc(Oc2cc3c(cc2Cl)C(C(=O)O)CCO3)cc1 (centres unmarked) [Example 164, Sodium 6-chloro-7-(4-(3-(4-chlorophenyl)cyclohexylcarbamoyl)phenoxy)chroman-4-carboxylate]
28 | 173 nM |  |  | N#Cc1cc2c(cc1Oc1ccc(C(=O)Nc3cccc(-c4ccccc4)c3)cc1)OCCC2C(=O)O (centres unmarked) [Example 67, 7-(4-(Biphenyl-3-ylcarbamoyl)phenoxy)-6-cyanochroman-4-carboxylic acid]
29 | 356 nM |  |  | O=C(NCCCc1ccc(Cl)cc1)c1ccc(Oc2cc3c(cc2Cl)C(C(=O)O)CCO3)cc1 (centres unmarked) [Example 77, Sodium 6-chloro-7-(4-(3-(4-chlorophenyl)propylcarbamoyl)phenoxy)chroman-4-carboxylate]
30 | 91.4 nM |  |  | O=C(NCCc1ccc(-c2ccccc2)cc1Cl)c1ccc(Oc2cc3c(cc2Cl)C(C(=O)O)CCO3)cc1 (centres unmarked) [Example 31, Sodium 6-chloro-7-(4-(2-(3-chlorobiphenyl-4-yl)ethylcarbamoyl)phenoxy)chroman-4-carboxylate]
31 | 193 nM |  |  | O=C(NCCc1ccc(C(F)(F)F)cc1Cl)c1ccc(Oc2cc3c(cc2Cl)C(C(=O)O)CCO3)cc1 (centres unmarked) [Example 98, Sodium 6-chloro-7-(4-(2-chloro-4-(trifluoromethyl)phenethylcarbamoyl)phenoxy)chroman-4-carboxylate]
32 | 327 nM |  |  | O=C(NC1CCC(c2ccc(Cl)c(Cl)c2)C1)c1ccc(Oc2cc3c(cc2Cl)C(C(=O)O)CCO3)cc1 (centres unmarked) [Example 173, Sodium 6-chloro-7-(4-(3-(3,4-dichlorophenyl)cyclopentylcarbamoyl)phenoxy)chroman-4-carboxylate]
33 | 150 nM |  |  | O=C(NCCc1ccc(Cl)cc1)c1ccc(Oc2cc3c(cc2C2CC2)C(C(=O)O)CCO3)cc1 (centres unmarked) [Example 41, Sodium 7-(4-(4-chlorophenethylcarbamoyl)phenoxy)-6-cyclopropylchroman-4-carboxylate]
34 | 45.1 nM |  |  | O=C(NCCc1cc(F)ccc1Oc1ccc(Cl)cc1Cl)c1ccc(Oc2cc3c(cc2Cl)C(C(=O)O)CCO3)cc1 (centres unmarked) [Example 213, sodium 6-chloro-7-(4-(2-(2,4-dichlorophenoxy)-5-fluorophenethylcarbamoyl)phenoxy)chroman-4-carboxylate]
35 | 209 nM |  |  | O=C(NCCc1ccc(OC(F)F)cc1)c1ccc(Oc2cc3c(cc2Cl)C(C(=O)O)CCO3)cc1 (centres unmarked) [Example 223, 6-chloro-7-(4-(4-(difluoromethoxy)phenethylcarbamoyl)phenoxy) chroman-4-carboxylic acid]
36 | 759 nM |  |  | COC(CNC(=O)c1ccc(Oc2cc3c(cc2Cl)C(C(=O)O)CCO3)cc1)c1ccc(Cl)cc1 (centres unmarked) [Example 188, Sodium 6-chloro-7-(4-(2-(4-chlorophenyl)-2-methoxyethylcarbamoyl)phenoxy)chroman-4-carboxylate]
